Results: patent US20220402862A1 (Intellia Therapeutics, Inc., priority 2019, published 2022)
Values joined by “and” are separate entries in the source; they are usually repeats but may differ in a detail not shown here. Identical values can stand only once.

Key:
mouse TTR gene = assay: In vivo editing in mouse liver, sgRNA targeting TTR (G282 or G502), % indel by NGS; parameters: species or system CD-1 female mice
Method in brief: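 Female CD-1 mice, 6–10 weeks, given a single i.v. tail-vein dose of LNPs carrying Cas9 mRNA plus TTR sgRNA (G282 or G502), at several dose levels. Liver collected at 6 or 7 days; percent indels = reads with insertions or deletions over total reads, by amplicon NGS.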

Transthyretin (TTR) [1] = assay: Serum TTR measurement in rats after LNP dosing; format: in vivo, Sprague Dawley female rats; details: Experiment 109; for Serum TTR % TSS: rat serum TTR relative to TSS control; for Serum TTR: rat serum, G534 sgRNA + Cas9 mRNA LNP
Transthyretin (TTR) [2] = assay: Serum TTR ELISA in mice after LNP dosing; format: in vivo, CD-1 female mice
Method in brief: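 Serum mouse TTR was quantified by ELISA at 10,000-fold dilution for 0.1 mg/kg and 10,000/2,500-fold for 0.3 mg/kg. Samples came from female CD-1 mice (6–10 weeks) killed 6 or 7 days after a single intravenous LNP dose, usually 0.1 mg/kg.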

mouse B2M gene = assay: In vivo editing in mouse liver, sgRNA targeting B2M (G650), % indel by NGS; parameters: species or system CD-1 female mice; details: for Editing Mean % Indel: mouse liver, guide G650, Experiment 104; for Liver editing (%): mouse, experiment 108
Protocol: CD-1 female mice ranging from 6-10 weeks of age were used in each study. Animals were weighed and grouped according to body weight for preparing dosing solutions based on group average weight. LNPs were dosed via the lateral tail vein in a volume of 0.2 mL per animal (approximately 10 mL per kilogram body weight). The animals were periodically observed for adverse effects for at least 24 hours post dose. For studies measuring in vivo editing in liver, CD-1 female mice were dosed at 0.1 mg/kg unless otherwise noted. Animals were euthanized at 6 or 7 days by ex sanguination via cardiac puncture under isoflurane anesthesia. Liver tissue was collected from each animal for DNA extraction and analysis. Blood was collected into serum separator tubes or into tubes containing buffered sodium citrate for plasma as described herein. Cohorts of mice were measured for editing by Next-Generation Sequencing (NGS).
In brief, to quantitatively determine the efficiency of editing at the target location in the genome, genomic DNA was isolated and deep sequencing was utilized to identify the presence of insertions and deletions introduced by gene editing.
PCR primers were designed around the target site (e.g., within B2M), and the genomic area of interest was amplified. Additional PCR was performed according to the manufacturer's protocols (Illumina) to add the necessary chemistry for sequencing. The amplicons were sequenced on an Illumina MiSeq instrument. The reads were aligned to the mouse or rat reference genome (e.g., GRCm38) after eliminating those having low quality scores. The resulting files containing the reads were mapped to the reference genome (BAM files), where reads that overlapped the target region of interest were selected and the number of wild type reads versus the number of reads which contain an insertion, substitution, or deletion was calculated.
The editing percentage (e.g., the “indel efficiency” or “percent indels”) was defined as the total number of sequence reads with insertions or deletions over the total number of sequence reads, including wild type.
We assessed in vivo editing efficiency for materials delivered with formulations including various amine lipid compounds. Editing was measured using either G282 (SEQ ID No: 1) which targets the mouse TTR gene or G650 (SEQ ID No. 2) which targets the mouse B2M gene. Lipids described above were assessed for efficacy through in vivo editing experiments. LNPs were formulated at a 1:1 or 1:1.3 w/w ratio of sgRNA to Cas9 mRNA, and at an N/P ratio of about 6. Molar concentrations of lipids in the lipid component of the LNPs are used at mol % amine lipid/DSPC/cholesterol/PEG-2k-DMG of 50/9/38/3. The final LNPs were characterized to determine the encapsulation efficiency, polydispersity index, and average particle size according to the analytical methods provided above. Analysis of average particle size, polydispersity (PDI), total RNA content and encapsulation efficiency of RNA are shown in Table 2.
Alternatively, Cas9 mRNA of Example 120 was formulated as LNPs with an sgRNA targeting B2M (G650, SEQ ID NO: 2) These LNPs were formulated at a w/w ratio of a sgRNA and Cas9 mRNA as indicated in Table 4. The LNPs were formulated using the cross flow procedure with lipid molar compositions of mol % amine lipid/DSPC/cholesterol/PEG-2k-DMG of 50/9/38/3 and an N/P ratio of 6.0. […]
CD-1 female mice were dosed i.v. at 0.1, 0.3, or 1 mg/kg and assessed for editing in liver, spleen, and bone marrow.

[3] = LNP i.v. 0.03 mg/kg, guide G502, Experiment 105
[4] = LNP i.v. 0.1 mg/kg, guide G502, Experiment 105
[5] = mouse, LNP i.v. 0.03 mg/kg, guide G502, Experiment 105
[6] = mouse, LNP i.v. 0.03 mg/kg, guide G502, Experiment 105, relative to TSS control
[7] = mouse, LNP i.v. 0.1 mg/kg, guide G502, Experiment 105
[8] = mouse, LNP i.v. 0.1 mg/kg, guide G502, Experiment 105, relative to TSS control
[9] = LNP i.v. 0.1 mg/kg, guide G282, Experiments 101-103
[10] = LNP i.v. 0.3 mg/kg, guide G282, Experiments 101-103
[11] = mouse serum TTR relative to TSS control, guide G282 experiments
[12] = mouse serum, guide G282 experiments, ELISA
[13] = mouse, LNP i.v. 0.1 mg/kg, guide G282, Experiments 101-103
[14] = mouse, LNP i.v. 0.1 mg/kg, guide G282, Experiments 101-103, relative to TSS control
[15] = mouse, LNP i.v. 0.3 mg/kg, guide G282, Experiments 101-103
[16] = mouse, LNP i.v. 0.3 mg/kg, guide G282, Experiments 101-103, relative to TSS control

SMILES	Editing Mean % Indel (mouse TTR gene; [3]) [%]	Editing Mean % Indel (mouse TTR gene; [4]) [%]	Serum TTR % TSS (Transthyretin (TTR) [1]; G534, i.v. 0.1 mg/kg) [% TSS]	Serum TTR % TSS (Transthyretin (TTR) [1]; G534, i.v. 0.3 mg/kg) [% TSS]	Serum TTR (Transthyretin (TTR) [1]; i.v. 0.1 mg/kg) [µg/mL]	Serum TTR (Transthyretin (TTR) [1]; i.v. 0.3 mg/kg) [µg/mL]	Serum TTR (Transthyretin (TTR) [2]; [5]) [µg/mL]	Serum TTR % TSS (Transthyretin (TTR) [2]; [6]) [%]	Serum TTR (Transthyretin (TTR) [2]; [7]) [µg/mL]	Serum TTR % TSS (Transthyretin (TTR) [2]; [8]) [%]	Editing Mean % Indel (mouse B2M gene; LNP i.v. 0.1 mg/kg) [%]	Editing Mean % Indel (mouse B2M gene; LNP i.v. 0.3 mg/kg) [%]	Editing Mean % Indel (mouse TTR gene; [9]) [%]	Editing Mean % Indel (mouse TTR gene; [10]) [%]	Serum TTR % TSS (Transthyretin (TTR) [2]; [11])	Serum TTR (Transthyretin (TTR) [2]; [12])	Serum TTR (Transthyretin (TTR) [2]; [13]) [µg/mL]	Serum TTR % TSS (Transthyretin (TTR) [2]; [14]) [%]	Serum TTR (Transthyretin (TTR) [2]; [15]) [µg/mL]	Serum TTR % TSS (Transthyretin (TTR) [2]; [16]) [%]	also measured
CCCCC/C=C\C/C=C\CCCCCCCC(=O)OCC(COC(=O)CCC(OCCCCCCCC)OCCCCCCCC)COC(=O)OCCCN(CC)CC (stereo not shown) [Compound 1, 3-((4,4-bis(octyloxy)butanoyl)oxy)-2-((((3-(diethylamino)propoxy)carbonyl)oxy)methyl)propyl (9Z,12Z)-octadeca-9,12-dienoate, reference compound]	9.24	47.62	56.6	7.1	916.9	114.3	931	85	294	27	17.8	50.3									Serum TTR % TSS (Transthyretin (TTR) [2]; mouse serum TTR relative to TSS control, guide G502, i.v. 0.1 mg/kg, 0.1 mg/kg): 53.7% and 37.8%; Serum TTR (Transthyretin (TTR) [2]; mouse serum, guide G502, i.v. 0.1 mg/kg, 0.1 mg/kg): 593.76 µg/mL and 442 µg/mL; Serum TTR % TSS (Transthyretin (TTR) [2]; mouse, LNP i.v. 0.1 mg/kg, guide G282, Experiments 101-103, relative to TSS control, 0.1 mg/kg): 79% and 54% and 76%; Serum TTR % TSS (Transthyretin (TTR) [2]; mouse, LNP i.v. 0.3 mg/kg, guide G282, Experiments 101-103, relative to TSS control, 0.3 mg/kg): 20% and 13%; Liver editing (%) (mouse B2M gene; G650, i.v. dose 0.1 mg/kg): 23.74%; Liver editing (%) (mouse B2M gene; G650, i.v. dose 0.3 mg/kg): 58.48%; Liver editing (%) (mouse B2M gene; G650, i.v. dose 1 mg/kg): 73.6%
CCCCC/C=C\C/C=C\CCCCCCCC(=O)OCC(COC(=O)CCC(OCCCCCCCC)OCCCCCCCC)COC(=O)NCC1CCCN1CC (stereo not shown) [Compound 40, 3-((4,4-bis(octyloxy)butanoyl)oxy)-2-(((((1-ethylpyrrolidin-2-yl)methyl)carbamoyl)oxy)methyl)propyl (9Z,12Z)-octadeca-9,12-dienoate]													30.2	68.0	44%	393 µg/mL	443	48	80	9	
CCCCC/C=C\C/C=C\CCCCCCCC(=O)OCC(COC(=O)CCC(OCCCCCCCC)OCCCCCCCC)COC(=O)OCC1CCCN(C)C1 (stereo not shown) [Compound 53, 3-((4,4-bis(octyloxy)butanoyl)oxy)-2-(((((1-methylpiperidin-3-yl)methoxy)carbonyl)oxy)methyl)propyl (9Z,12Z)-octadeca-9,12-dienoate]													8.6	48.2	47%	413 µg/mL	619	67	231	25	
CCCCCCCCCCOC(=O)CCCCCCCC(=O)OCC(COC(=O)CCC(OCCCCCCCC)OCCCCCCCC)COC(=O)OCCCN(CC)CC (stereo not shown) [Compound 59, 1-(3-((4,4-bis(octyloxy)butanoyl)oxy)-2-((((3-(diethylamino)propoxy)carbonyl)oxy)methyl)propyl) 9-decyl nonanedioate]	11.8	35.64	69.4	20.9	1124.0	337.9	909	83	467	42	21.2	51.6	32.4	63.9	40% and 57% and 66%	367 µg/mL and 431 µg/mL and 604 µg/mL	300	49	43	7	
CCCCCCCCCC(C)OC(=O)CCCCCCCC(=O)OCC(COC(=O)CCC(OCCCCCCCC)OCCCCCCCC)COC(=O)OCCCN(CC)CC (stereo not shown) [Compound 94, 1-(344,4-bis(octyloxy)butanoyl)oxy)-2-((((3-(diethylamino)propoxy)carbonyl)oxy)methyl)propyl) 9-(undecan-2-yl) nonanedioate]	19.76	43.52	39.5	8.2	639.5	132.9	605	55	352	32					38%	286 µg/mL					
CCCCC/C=C\C/C=C\CCCCCCCC(=O)OCC(COC(=O)CC12CC3CC(CC(C3)C1)C2)COC(=O)OCCCN(CC)CC (stereo not shown) [Compound 107, 3-(2-((3 r,5 r, 7r)-adamantan-1-yl)acetoxy)-2-((((3-(diethylamino)propoxy)carbonyl)oxy)methyl)propyl (9Z,12Z)-octadeca-9,12-dienoate]																					Liver editing (%) (mouse B2M gene; G650, i.v. dose 0.1 mg/kg): 0.52%; Liver editing (%) (mouse B2M gene; G650, i.v. dose 0.3 mg/kg): 1.04%; Liver editing (%) (mouse B2M gene; G650, i.v. dose 1 mg/kg): 5.92%
